US20200068887A1, “TREATMENT FOR REMOVING ECTOPARASITES FROM FISH” (priority 2016, published 2020)

Tests used:
Format in all cases: in vivo
Lepeophtheirus salmonis [1] = assay: Immersion treatment of sea lice challenged salmon with 10, 30 and 50 ppm imidacloprid; details: for Abundance (and range) of adult female lice / Abundance (and range) of adult male lice / Abundance (and range) of ovigerous females / Mean abundance (and range) or all lice stages / Prevalence: lice counted week 8
From the text: Eight flow-through treatment tanks each containing 15 fish were set up. The fish were Salmon (Salmo salar) having an average weight of approximately 270 g and of mixed sex. Egg strings removed from ovigerous female Lepeophtheirus salmonis were collected and cultured until infective copepodids were produced. Eight bottles containing approximately 330-350 copepodids were each randomly allocated to a treatment tank (to provide an average of 22 lice per fish).
In preparation for the challenge, water flows in the tanks were stopped and light levels reduced. The lice were then added to each tank and the tanks maintained in total darkness for 6 hours after which light levels were raised and the water flow resumed.
The fish were challenged with sea lice for either one week or for six weeks.
One week after the sea lice challenge, fish in three of the tanks were treated with either 10 ppm w/v, 30 ppm w/v or 50 ppm w/v imidacloprid. One of the tanks was treated with 0.03% DMSO and another tank sham treated with sea water as controls.
For each treatment tank, the appropriate amount of imidacloprid (see Table 1) was dissolved in 100 ml of DMSO and mixed with approximately 900 ml of sea water from the experimental tank to obtain a treatment solution. The water flow on the experimental tanks was disabled and the treatment solution was then added.
Fish were exposed for 60 minutes in static water with full aeration and observed during the exposure period. At the end of the exposure period the water was rapidly drained to approximately ⅓ volume, before the flows were resumed in the tanks
Six weeks after the fish were challenged with sea lice, the fish in the three remaining treatment tanks were treated with either 10 ppm w/v, 30 ppm w/v or 50 ppm w/v imidacloprid. The treatment was carried out in the same way as for the treatment tanks one week post challenge (see 1.2.1).
Eight weeks after the fish were challenged with sea lice, the study was terminated. Fish were over anaesthetised in MS222 (tricaine methanesulfonate) and pithed using an Iki Jime tool. The length and weight of each fish and external symptoms were recorded. All lice were removed from each fish and note made of sex and stage of development. The lice were stored in ethanol and sex and stage confirmed using stereo microscope.
The data is expressed as prevalence and abundance. Prevalence is defined as the number of hosts infected with one of more individuals of a parasite species divided by the number of hosts examined (including infected and uninfected hosts) and expressed as a percentage.

Lepeophtheirus salmonis [2] = assay: Sea lice recovery in clean seawater after exposure; details: any concentration (10-25 mg/l), post-exposure period up to 6 hours
Procedure: Imidacloprid exposed parasites from both the relative efficacy and rate determination studies (both those removed manually from their host post-treatment and those that detached during treatment) were immersed into clean seawater and observed for signs of recovery.
At the time of the first observation, exposed individuals were determined to be either dead or still active. Of those still active, muscular excitation was uncoordinated, uncontrolled and limited.

salmon louse = assay: Revival rates of sea lice after bath treatment
Procedure: Numbers of dissociated lice in tank water or attached to the tank walls were recorded. Lice in the tank water were collected and assessed for ability to attach by suction to a smooth plastic surface immediately after treatment and again after 30-60 minutes (to assess possible revival). Live and viable lice were also collected from the mock-treated control groups for reference and held in revival chambers for the same period of time to assess the system.
Remaining lice in the treatment bath were strained through a plankton mesh (2 mm pore size) that was suspended in a water bath with clean seawater. The lice in this collector were transferred to a plastic beaker (1 litre) and then again into a revival tube (5 cm diameter; 10 cm length). Lice that are able to attach to the walls of the treatment tanks or beaker within 3 minutes of completion of each test were scored as viable.

[3] = test system: pre-adult and adult sea lice; assay: Timescale of effect of imidacloprid against sea lice on killed salmon hosts; details: for lice that left the host: around 12° C.
Procedure: To determine the timescale of the effect of imidacloprid, salmon infected with pre-adult and adult sea lice were removed from a stock tank and killed using a sharp blow to the head.
For fish exposed to 0 ppm imidacloprid (negative controls), observations were made for 60 minutes. […] Three fish per treatment group were tested.
Observations on the time at which lice left the host, and the sex and stage of the sea louse was noted. Any lice that left the host were transferred to clean sea water immediately. Furthermore, any lice remaining on the host at the end of the exposure period were removed from the host and transferred to clean sea water.
Lice were observed both shortly after and approximately 2 hours after the end of the exposure period.
The ratio of male to female sea lice was around 50:50. The water temperature was around 12° C.

[4] = 10 ppm w/v 60 min, treated 1 week post challenge
[5] = 10 ppm w/v 60 min, treated 6 weeks post challenge
[6] = 30 ppm w/v 60 min, treated 1 week post challenge
[7] = 30 ppm w/v 60 min, treated 6 weeks post challenge
[8] = 50 ppm w/v 60 min, treated 1 week post challenge, two fish removed from group
[9] = 50 ppm w/v 60 min, treated 6 weeks post challenge

O=[N+]([O-])NC1=NCCN1Cc1ccc(Cl)nc1 [imidacloprid]
prevalence of infection of all lice stages versus the two control groups (Lepeophtheirus salmonis [1]; 10, 30 or 50 ppm w/v, treated one week post challenge, examined week 8): not considered to differ | Abundance (and range) of adult female lice (Lepeophtheirus salmonis [1]; [4]): 0.067 (0-1) | Abundance (and range) of adult male lice (Lepeophtheirus salmonis [1]; [4]): 0.87 (0-2) | Abundance (and range) of ovigerous females (Lepeophtheirus salmonis [1]; [4]): 1.47 (0-3) | Mean abundance (and range) or all lice stages (Lepeophtheirus salmonis [1]; [4]): 2.4 (1-5) | Prevalence (Lepeophtheirus salmonis [1]; [4]): 100% | Abundance (and range) of adult female lice (Lepeophtheirus salmonis [1]; [5]): 0 | Abundance (and range) of adult male lice (Lepeophtheirus salmonis [1]; [5]): 0 | Abundance (and range) of ovigerous females (Lepeophtheirus salmonis [1]; [5]): 0 | Mean abundance (and range) or all lice stages (Lepeophtheirus salmonis [1]; [5]): 0 | Prevalence (Lepeophtheirus salmonis [1]; [5]): 0% | infected fish (each with a single ovigerous female) (Lepeophtheirus salmonis [1]; 10 ppm w/v, 6 weeks post challenge, 54 minutes after addition): 2 fish | lice remaining on fish (Lepeophtheirus salmonis [1]; 10 ppm w/v, 6 weeks post challenge, 91 minutes after addition, louse stayed at least five days): a single male louse was observed on the head of its host | lice observed in the water column (Lepeophtheirus salmonis [1]; 10 ppm w/v, 6 weeks post challenge, first 19 minutes after addition): Lice were not observed in the water column | Abundance (and range) of adult female lice (Lepeophtheirus salmonis [1]; [6]): 0 (0-0) | Abundance (and range) of adult male lice (Lepeophtheirus salmonis [1]; [6]): 0.8 (0-1) | Abundance (and range) of ovigerous females (Lepeophtheirus salmonis [1]; [6]): 1.4 (0-3) | Mean abundance (and range) or all lice stages (Lepeophtheirus salmonis [1]; [6]): 2.2 (0-4) | Prevalence (Lepeophtheirus salmonis [1]; [6]): 93.33% | Abundance (and range) of adult female lice (Lepeophtheirus salmonis [1]; [7]): 0 | Abundance (and range) of adult male lice (Lepeophtheirus salmonis [1]; [7]): 0 | Abundance (and range) of ovigerous females (Lepeophtheirus salmonis [1]; [7]): 0 | Mean abundance (and range) or all lice stages (Lepeophtheirus salmonis [1]; [7]): 0 | Prevalence (Lepeophtheirus salmonis [1]; [7]): 0% | lice on the fish with re-attached lice (Lepeophtheirus salmonis [1]; 30 ppm w/v, 6 weeks post challenge, 6 minutes after the 78 minute observation): no lice were observed on these fish | lice observed in the water column (Lepeophtheirus salmonis [1]; 30 ppm w/v, 6 weeks post challenge, 10 minutes after addition): 1-2 lice | lice present in the water column (Lepeophtheirus salmonis [1]; 30 ppm w/v, 6 weeks post challenge, 18 minutes after addition): approximately 10 lice | lice noted in the water (Lepeophtheirus salmonis [1]; 30 ppm w/v, 6 weeks post challenge, 25 minutes after addition): approximately 20 lice | fish appearing infected (estimated 1-2 lice per fish) (Lepeophtheirus salmonis [1]; 30 ppm w/v, 6 weeks post challenge, 25 minutes after addition, 15 fish per tank): less than 6 fish | infection status of fish (Lepeophtheirus salmonis [1]; 30 ppm w/v, 6 weeks post challenge, 33 minutes after addition): most fish were considered to be negative for any lice infections | fish appearing infected (each with a single louse) (Lepeophtheirus salmonis [1]; 30 ppm w/v, 6 weeks post challenge, 47 minutes after addition): 3 fish | infection status of fish (Lepeophtheirus salmonis [1]; 30 ppm w/v, 6 weeks post challenge, 59 minutes after addition): no fish were visibly infected with lice | fish with re-attached louse (1 louse each) (Lepeophtheirus salmonis [1]; 30 ppm w/v, 6 weeks post challenge, 78 minutes after addition): 4 fish | lesions associated with feeding and attachment of lice (Lepeophtheirus salmonis [1]; 30 ppm w/v, two days post-treatment): almost completely resolved | Abundance (and range) of adult male lice (Lepeophtheirus salmonis [1]; [8]): 1.23 (0-3) | Abundance (and range) of ovigerous females (Lepeophtheirus salmonis [1]; [8]): 1.69 (0-5) | Abundance (and range) of adult female lice (Lepeophtheirus salmonis [1]; [9]): 0 | Abundance (and range) of adult male lice (Lepeophtheirus salmonis [1]; [9]): 0 | Abundance (and range) of ovigerous females (Lepeophtheirus salmonis [1]; [9]): 0 | Mean abundance (and range) or all lice stages (Lepeophtheirus salmonis [1]; [9]): 0 | Prevalence (Lepeophtheirus salmonis [1]; [9]): 0% | fish noted as infected (each with a single louse) (Lepeophtheirus salmonis [1]; 50 ppm w/v, 6 weeks post challenge, 44 minutes after addition, 15 fish per tank): five | fish with a single louse infection (Lepeophtheirus salmonis [1]; 50 ppm w/v, 6 weeks post challenge, 53 minutes after addition): 2-3 fish | lice remaining on fish (Lepeophtheirus salmonis [1]; 50 ppm w/v, 6 weeks post challenge, 58 minutes after addition): only one louse was apparent on a single fish | lice remaining on fish (Lepeophtheirus salmonis [1]; 50 ppm w/v, 6 weeks post challenge, 81 minutes after addition): no lice were visible on the fish | lice detached from the host, free in the water column (Lepeophtheirus salmonis [1]; 50 ppm w/v, 6 weeks post challenge, after 12 minutes): approximately 10 lice | lice observed in the water column (Lepeophtheirus salmonis [1]; 50 ppm w/v, 6 weeks post challenge, after 18 minutes): approximately 20 lice | lice observed in the water column (Lepeophtheirus salmonis [1]; 50 ppm w/v, 6 weeks post challenge, between 2 and 6 minutes after addition): No lice were observed | lesions associated with feeding and attachment of lice (Lepeophtheirus salmonis [1]; 50 ppm w/v, two days post treatment): almost completely resolved | effectiveness against motile parasitic stages of lice (Lepeophtheirus salmonis [1]; all treatment doses (10, 30, 50 ppm w/v), treated six weeks after challenge): 100% | overall lice abundances compared with the DMSO control (Lepeophtheirus salmonis [1]; treated one week post challenge): No significant differences | functional recovery of exposed parasites in clean seawater (Lepeophtheirus salmonis [2]): no clear signs of functional recovery | % active at 30-60 min. post-treatment, Attached lice collected from fish (salmon louse; 20 ppm 30 min, n lice 9): 11.1% | % active at 30-60 min. post-treatment, Detached lice collected from tank water (salmon louse; 20 ppm 30 min, n lice 23): 4.3% | % active at 30-60 min. post-treatment, Detached lice collected from tank water (salmon louse; 20 ppm 60 min, n lice 20): 0.0% | % active at 30-60 min. post-treatment, Detached lice collected from tank water (salmon louse; 50 ppm 30 min, n lice 31): 0.0% | % active at 30-60 min. post-treatment, Detached lice collected from tank water (salmon louse; 100 ppm 3 min, n lice 3): 33.3% | % active at 30-60 min. post-treatment, Detached lice collected from tank water (salmon louse; 100 ppm 15 min, n lice 28): 0.0% | % active at 30-60 min. post-treatment, Attached lice collected from fish (salmon louse; 200 ppm 5 min, n lice 13): 0.0% | % active at 30-60 min. post-treatment, Detached lice collected from tank water (salmon louse; 200 ppm 5 min, n lice 13): 0.0% | % active at 30-60 min. post-treatment, Detached lice collected from tank water (salmon louse; 200 ppm 15 min, n lice 43): 0.0% | lice considered dead ([3]; 20 mg/L, 30 minutes post-exposure, of 49 lice): two | signs of recovery in clean sea water ([3]; 20 ppm, lice exposed for 30 minutes): No lice exposed for 30 minutes showed signs of recovery | lice deemed alive and responsive ([3]; 20 ppm, out of 49 lice): Twelve | lice considered dead ([3]; 50 ppm, 2 hours p.e., of 21 lice): 14 lice | lice considered dead ([3]; 50 ppm, at 30 minutes, of 21 lice): four | lice considered dead ([3]; 100 ppm, 2 hours p.e.): 17/28 | lice considered dead ([3]; 100 ppm, end of the exposure period, of 28 lice): four | lice considered dead ([3]; 200 ppm, 2 hours post-exposure, of 26 lice): Six | lice considered dead ([3]; 200 ppm, end of the exposure period, of 26 lice): four | lice considered dead ([3]; 500 ppm, 30 minutes p.e., out of 20 lice): Six | lice considered dead ([3]; 500 ppm, 2 hours p.e.): 15/20 | lice that left the host ([3]; 500 ppm, within the first 9 minutes): around 70% | lice that left the host ([3]; between 20 and 200 ppm, within the first 15 minutes): around 50%
